Test results published in the supplement of paper PMC8498969.

Assays:
[1] = test system: HEK293; assay: maximal inhibition of ZIKV NS1 production (% inhibition); higher = stronger antiviral effect
Protocol: (§1)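 HEK293 cells in 1536-well plates were pre-treated with compound for 1 h, infected with ZIKV (MOI 1) for 24 h, and NS1 antigen (intra- plus extracellular) was measured by TR-FRET. Confirmation used 11-point 1:3 dilutions, and IC50 and maximal inhibition were fitted in GraphPad Prism.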

[2] = test system: HEK293; assay: cytotoxicity IC50 (ATP content, uninfected cells); higher = less cytotoxic; conditions: infection: none
[3] = test system: HEK293; assay: IC50 for inhibition of ZIKV NS1 production
Protocol: as §1

**Q.** How did the maximal inhibition [1] turn out when `C[C@@H]1O[C@@H](O[C@H]2C[C@@H](O)[C@]3(CO)[C@H]4[C@H](O)C[C@]5(C)[C@@H]([C@@H]6COC(=O)C6)CC[C@]5(O)[C@@H]4CC[C@]3(O)C2)[C@H](O)[C@H](O)[C@H]1O` was run?
**A.** 103

**Q.** What about the “cytotoxicity IC50” value [2] of the same molecule?
**A.** 0.85 µM

**Q.** And the IC50 [3]?
**A.** 1.5 µM

**Q.** `COc1cccc2c(NCc3ccccc3)nc(-n3c(N)nc4ccccc43)nc12` was tested. Which maximal inhibition [1] did it give?
**A.** 100

**Q.** And the “cytotoxicity IC50” value [2]?
**A.** 30 µM

**Q.** And the IC50 [3]?
**A.** 50 µM

**Q.** Which results are given for `OCCN1CCN(CCCN2c3ccccc3Sc3ccc(C(F)(F)F)cc32)CC1`?
**A.** maximal inhibition [1]: 84; cytotoxicity IC50 [2]: > 100 µM; IC50 [3]: 25 µM

**Q.** `C[n+]1cc2c3c(ccc2c2ccc4cc5c(cc4c21)OCO5)OCO3` was tested. Which maximal inhibition [1] did it give?
**A.** 96

**Q.** What about the “cytotoxicity IC50” value [2] of the same molecule?
**A.** 6.4 µM

**Q.** And the IC50 [3]?
**A.** 2.9 µM

**Q.** For `Cc1cc(Nc2cc(N3CCN(C)CC3)nc(Sc3ccc(NC(=O)C4CC4)cc3)n2)n[nH]1`, which maximal inhibition [1] is on record?
**A.** 107

**Q.** What about the “cytotoxicity IC50” value [2] of the same molecule?
**A.** > 100 µM

**Q.** What about the IC50 [3] of the same molecule?
**A.** 14 µM

**Q.** Which maximal inhibition [1] does the source give for `CC[C@@H]1C(=O)N(C)c2cnc(Nc3ccc(C(=O)N[C@H]4CC[C@H](N5CCN(CC6CC6)CC5)CC4)cc3OC)nc2N1C(C)C` here?
**A.** 101

**Q.** What about the “cytotoxicity IC50” value [2] of the same molecule?
**A.** > 100 µM

**Q.** What about the IC50 [3] of the same molecule?
**A.** 0.065 µM

**Q.** For `Nc1nc(F)nc2c1ncn2[C@@H]1O[C@H](CO)[C@@H](O)[C@H]1O`, which maximal inhibition [1] is on record?
**A.** 98

**Q.** What about the “cytotoxicity IC50” value [2] of the same molecule?
**A.** 11 µM

**Q.** What about the IC50 [3] of the same molecule?
**A.** 2.9 µM
